What was measured:
[1] = test system: rat vaginal Col1a1, Col3a1, Col5a1 mRNA; assay: qRT-PCR of vaginal collagen gene expression after 2 weeks vaginal suppositories; type: in vivo; details: OVX rats, vaginal suppositories 2 weeks, mean±SD
Excerpt: Ten to 12-weeks old female ovariectomized (OVX) Sprague-Dawley rats were utilized for the experiments. The animals were acclimatized to the environmental conditions before starting the experiment. The animals were housed individually and were allowed free access to water and rodent food. Two weeks after the ovariectomy rats (n=36) were divided into five groups: control (receiving placebo suppositories, n=8), Zinc (receiving zinc sulfate containing suppositories, n=8), GW (receiving GW501516 containing suppositories, n=8), Zinc with GW (receiving Zinc with GW 501516 containing suppositories, n=8) and Estradiol (receiving estradiol containing suppositories, n=4).
The suppositories were prepared according to the fusion method, using a polypeg suppository base (MEDISCA, N.Y., USA). […] Using a microwave, the suppository base was melted in a small beaker for 3 min and then transferred and kept into a water bath at a temperature of 55° C. The proper amount of above reagent was added to the liquefied base and meticulously crushed with a smooth rounded-end glass rod for about 20 min to make the solution to be even and clear. A pipette tip was used to suck some amount of solution and push it into a plastic tube with a diameter of 3.5 mm, and the tube was immediately left on the flat surface of an ice bucket. The suppository turned to white in color when it was solid. The moulded suppository was then pushed out of the tube using a round rod. The moulded suppository was cut using a razor blade to a length of 1.2 cm each, which was calibrated to equal a volume of 50±5 μl per each suppository. After 30 min of cooling at room temperature, the suppositories were stored at 4° C. in a closed chamber until use. They were left to reach room temperature before use.
Total RNA was isolated from 20 mg of vaginal rat tissue in each experimental rat group using the RNeasy Mini kit (Qiagen) according to the manufacturer's specifications. For each total RNA preparation, DNase digestion was performed to remove contaminating genomic DNA. Total RNA samples from each tissue were quantified and evaluated for RNA integrity by the Agilent Bioanalyzer 2100 (Applied Biosystems, Foster City Calif., USA). Following RNA extraction, cDNA was reverse transcribed from ˜500 ng of each total RNA preparation using the qScript cDNA synthesis kit (Quanta Biosciences, Gaithersburg Md., USA). Finally, cDNA samples were used to perform gene expression analysis by qRT-PCR using SYBR Green technology on the RealPlex EP Mastercycler (Eppendorf, Germany) of five genes with known roles in vaginal tissue reconstruction: Collagen IaI (col 1a1), Collagen IIIaI (col 3a1), Collagen VaI (col 5a1), Elastin (eln), Tensin I (tns-1). Glyceraldehyde-3 Phosphate Dehydrogenase (gapdh) was used as a positive control to normalize the expression of each gene. Each qRT-PCR reaction was run in triplicate using Perfecta SYBR Green Supermix (Quanta Biosciences, Gaithersburg Md., USA) in 25 μL reaction volumes using a final concentration of 300 nM forward and reverse primers. For each of the genes analyzed in this study, primers were designed using Primer-BLAST software (NCBI) and synthesized by IDT Technologies (San Diego, Calif.).

[2] = test system: rat vaginal Collagen I, Collagen III, Collagen V protein; assay: Immunofluorescence of vaginal collagen protein expression after 2 weeks vaginal suppositories; type: in vivo; details: OVX rats, vaginal suppositories 2 weeks, mean±SD
Procedure: Ten to 12-weeks old female ovariectomized (OVX) Sprague-Dawley rats were utilized for the experiments. The animals were acclimatized to the environmental conditions before starting the experiment. The animals were housed individually and were allowed free access to water and rodent food. […] The suppositories were prepared according to the fusion method, using a polypeg suppository base ([…]., USA). […] Using a microwave, the suppository base was melted in a small beaker for 3 min and then transferred and kept into a water bath at a temperature of 55° C. The proper amount of above reagent was added to the liquefied base and meticulously crushed with a smooth rounded-end glass rod for about 20 min to make the solution to be even and clear. A pipette tip was used to suck some amount of solution and push it into a plastic tube with a diameter of 3.5 mm, and the tube was immediately left on the flat surface of an ice bucket. The suppository turned to white in color when it was solid. The moulded suppository was then pushed out of the tube using a round rod. […] After 30 min of cooling at room temperature, the suppositories were stored at 4° C. in a closed chamber until use. They were left to reach room temperature before use. The day after the last treatment the rats were overnight fasted and then sacrificed. Macroscopic measurement (genital hiatus, vaginal length) were taken and the vagina was dissected out carefully to avoid any injury to the vagina. The mid section of the vagina was utilized for histology (H and E stain, Masson's trichrome stain) and immunofluorescence and the rest of the vagina was used for RNA extraction and RT-PCR. Samples were incubated with three different antibodies, collagen I, III and anti-actin or collagen I and V and anti-actin. Frozen tissues samples were cut into sections of 6 μm and fixed for 10 min with acetone, followed by five washes of phosphate-buffered saline (PBS). […] After that, sections were incubated with the secondary antibody for one hour in the dark, at room temperature, followed by five washes of PBS. […] Alexa Fluor 405 Goat Anti-Mouse IgG (1:400) (Invitrogen); Cy3-AffiniPure Goat Anti-Mouse IgM (1:400) (Jackson ImmunoResearch Laboratories, West Grove, Pa.); Alexa Fluor 647 (1;200) phalloidin (Invitrogen). […] Four images were obtained per section. Images were capture with an Orca II-ERG 12 bitt CCD camera in a Zeiss Apotome microscope with a 20× objective. The data was analyzed using Matamorph version 7.7.4 software. Results are represented as mean pixel intensity ratios per square area.

[3] = test system: ovariectomized (OVX) Sprague-Dawley rats; assay: Macroscopic measurements (genital hiatus, vaginal length) after 2 weeks vaginal suppositories; type: in vivo, rat; details: vaginal suppositories 2 weeks (20 μM zinc sulfate, 10 nM GW501516, 0.01% estradiol), mean±SD
Procedure: (§1) Ten to 12-weeks old female ovariectomized (OVX) Sprague-Dawley rats were utilized for the experiments. The animals were acclimatized to the environmental conditions before starting the experiment. The animals were housed individually and were allowed free access to water and rodent food. […] The suppositories were prepared according to the fusion method, using a polypeg suppository base ([…]., USA). […] Using a microwave, the suppository base was melted in a small beaker for 3 min and then transferred and kept into a water bath at a temperature of 55° C. The proper amount of above reagent was added to the liquefied base and meticulously crushed with a smooth rounded-end glass rod for about 20 min to make the solution to be even and clear. A pipette tip was used to suck some amount of solution and push it into a plastic tube with a diameter of 3.5 mm, and the tube was immediately left on the flat surface of an ice bucket. The suppository turned to white in color when it was solid. The moulded suppository was then pushed out of the tube using a round rod. […] After 30 min of cooling at room temperature, the suppositories were stored at 4° C. in a closed chamber until use. They were left to reach room temperature before use. The day after the last treatment the rats were overnight fasted and then sacrificed. Macroscopic measurement (genital hiatus, vaginal length) were taken and the vagina was dissected out carefully to avoid any injury to the vagina. The mid section of the vagina was utilized for histology (H and E stain, Masson's trichrome stain) and immunofluorescence and the rest of the vagina was used for RNA extraction and RT-PCR.

[4] = test system: ovariectomized (OVX) Sprague-Dawley rats; assay: Vaginal histology and histomorphometry after 2 weeks vaginal suppositories; type: in vivo, rat; details: vaginal suppositories 2 weeks
Procedure: as §1, with “RT-PCR. […] For each animal, a 4 μm-thick paraffin section was cut and stained with haematoxylineosin and with Masson's trichrome stain for morphological examination. […] The cornification was determined by the presence of a keratin layer on the vaginal epithelium. Measurements of the different vaginal layers were performed on the fifth segment of the vagina, which is approximately halfway between the middle region and the portio vaginalis uteri. […] Images were captured with a color digital camera and quantified using ImageJ software was used. […] The thickness of the lamina propria was obtained by deducting the thickness of the epithelium and muscularis from total vaginal thickness.” for “RT-PCR.”

Compound: C[C@]12CC[C@@H]3c4ccc(O)cc4CC[C@H]3[C@@H]1CC[C@@H]2O [Estradiol]
- ratio of vaginal Col1a1 to Col3a1 mRNA expression ([1]; placebo 0.78±0.2): 0.70±0.4 relative units
- ratio of vaginal Col1a1 to Col5a1 mRNA expression ([1]; placebo 4.3±1.9): 5.3±1.2 relative units
- ratio of vaginal Collagen I to Collagen III protein expression ([2]; placebo 1.16±0.2): 1.08±0.2 relative units
- ratio of vaginal Collagen I to Collagen V protein expression ([2]; placebo 1.28±0.3): 1.74±0.5 relative units
- genital hiatus (distance between the external urethral meatus and the mid anus) ([3]; placebo 12.6±1.1): 16.0±1.4 mm
- vaginal length ([3]; placebo 14.1±1.1): 18.7±1.5 mm
- vaginal epithelial thickness ([4]; mean±SD, placebo 57±18): 140±54 μm
- vaginal muscularis thickness ([4]; mean±SD, placebo 121±44): 124±53 μm
- vaginal lamina propria thickness ([4]; mean±SD, placebo 179±71): 152±80 μm
- vaginal thickness (all three layers of the vagina) ([4]; mean±SD, placebo 358±86): 417±82 μm
- vaginal epithelial cornification rate ([4]; placebo 0%): 100%
- lamina propria collagen fiber compactness ([4]; scale 0-5 (0=loose, 5=tight), mean±SD, placebo 4.5±0.6): 1.6±0.6 relative units
